ChEMBL document CHEMBL1134297, “5,6-Diphenylpyridazine derivatives as acyl-CoA:cholesterol acyltransferase inhibitors” (J Med Chem, 2001)
Several values for one entry are separate records, joined by “and”; a condition that tells them apart may be missing. Equal entries are not always repeated.

Organism: Mus musculus
Assay: Inhibition of cholesterol esterification in macrophages (Cholesterol efflux)
Type: functional
In the case of `CCCCCCCCCNc1cc(-c2ccccc2)c(-c2ccccc2)nn1`, the Esterification inhibitory concentration is reported as 14.1 µM and 13.8 µM.
With `CCCCCCCCNc1cc(-c2ccccc2)c(-c2ccccc2)nn1` the Esterification inhibitory concentration was 12.9 µM and 11.5 µM.
With `CCCCCCCOc1cc(-c2ccccc2)c(-c2ccccc2)nn1` the Esterification inhibitory concentration was 12.6 µM and 11.8 µM.

Test system: not listed separately
Assay: Percent inhibition of cell viability in murine macrophages
Type: functional, Mus musculus
Design: concentration or dose not given beside the values
In the case of `CCCCCCCCCNc1cc(-c2ccccc2)c(-c2ccccc2)nn1`, the Inhibition is reported as 5.9% and 2.7% and <1%.
In the case of `CCCCCCCCNc1cc(-c2ccccc2)c(-c2ccccc2)nn1`, the Inhibition is reported as 11.5% and 9.9% and 3.7% and 4.8%.
In the case of `CCCCCCCOc1cc(-c2ccccc2)c(-c2ccccc2)nn1`, the Inhibition is reported as <1%.

Target: T1, Sterol O-acyltransferase 1 (Rattus norvegicus, UniProt O70536)
T1 sequence (O70536 whole entry): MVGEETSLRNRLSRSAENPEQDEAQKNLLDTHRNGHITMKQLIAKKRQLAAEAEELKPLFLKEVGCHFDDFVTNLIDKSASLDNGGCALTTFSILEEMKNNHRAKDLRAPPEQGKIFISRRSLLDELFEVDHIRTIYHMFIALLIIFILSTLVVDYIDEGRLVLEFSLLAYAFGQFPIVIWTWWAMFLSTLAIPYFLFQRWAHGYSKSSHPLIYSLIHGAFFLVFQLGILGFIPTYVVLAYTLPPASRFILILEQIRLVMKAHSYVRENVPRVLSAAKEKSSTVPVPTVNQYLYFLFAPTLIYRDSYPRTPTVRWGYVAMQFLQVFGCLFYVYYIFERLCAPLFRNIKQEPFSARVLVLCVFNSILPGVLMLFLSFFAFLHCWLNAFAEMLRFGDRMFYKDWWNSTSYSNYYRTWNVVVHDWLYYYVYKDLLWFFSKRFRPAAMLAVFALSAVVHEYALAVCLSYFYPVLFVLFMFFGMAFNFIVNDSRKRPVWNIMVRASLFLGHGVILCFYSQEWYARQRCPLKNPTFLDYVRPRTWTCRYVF
Assay: In vitro acyl-coenzyme A:cholesterol acyltransferase inhibition in rat liver microsomes
Design: species or system Microsome
For `O=c1cc(-c2ccccc2)c(-c2ccccc2)nn1C1CCCCC1`, the IC50 was > 300 µM.
For `CCCCCC(=O)Nc1cc(-c2ccccc2)c(-c2ccccc2)nn1`, the IC50 was > 300 µM.
In the case of `CCCCCCCS(=O)(=O)c1cc(-c2ccccc2)c(-c2ccccc2)nn1`, the IC50 is reported as 49 µM.
`CCCCCCCCCOc1cc(-c2ccccc2)c(-c2ccccc2)nn1` gave an IC50 of 180 µM.
In the case of `CCCCCCCCCSc1cc(-c2ccccc2)c(-c2ccccc2)nn1`, the IC50 is reported as 116 µM.
Compound `CCCCCOc1cc(-c2ccccc2)c(-c2ccccc2)nn1` has an IC50 of 73 µM.
Compound `CCCCCCS(=O)(=O)c1cc(-c2ccccc2)c(-c2ccccc2)nn1` has an IC50 of 60 µM.
In the case of `CCCCCCCNc1cc(-c2ccccc2)c(-c2ccccc2)nn1`, the IC50 is reported as 55 µM.
With `O=C(O)CCCCCCCSc1cc(-c2ccccc2)c(-c2ccccc2)nn1` the IC50 was > 300 µM.
`CCCCCCCCn1nc(-c2ccccc2)c(-c2ccccc2)cc1=O` showed an IC50 of 80 µM.
For `CCCCCCn1nc(-c2ccccc2)c(-c2ccccc2)c(C)c1=O`, the IC50 was 56 µM.
Work on `CCCn1nc(-c2ccccc2)c(-c2ccccc2)cc1=O` yielded an IC50 of 230 µM.
With `CCCCCCCCOc1cc(-c2ccccc2)c(-c2ccccc2)nn1` the IC50 was 104 µM.
Compound `CC(C)n1nc(-c2ccccc2)c(-c2ccccc2)cc1=O` has an IC50 of 152 µM.
Compound `CCCCCCn1nc(-c2ccccc2)c(-c2ccccc2)cc1=O` has an IC50 of 57 µM.
Work on `CCCCCn1nc(-c2ccccc2)c(-c2ccccc2)cc1=O` yielded an IC50 of 66 µM.
Compound `CCCCCCOc1cc(-c2ccccc2)c(-c2ccccc2)nn1` has an IC50 of 72 µM.
Compound `CCCCCCNc1cc(-c2ccccc2)c(-c2ccccc2)nn1` has an IC50 of 24 µM.
For `O=C(O)CCCCCCCn1nc(-c2ccccc2)c(-c2ccccc2)cc1=O`, the IC50 was > 300 µM.
For `CCCCCCCn1nc(-c2ccccc2)c(-c2ccccc2)cc1=O`, the IC50 was 86 µM.
In the case of `CCCCCCCCNc1cc(-c2ccccc2)c(-c2ccccc2)nn1`, the IC50 is reported as 40 µM.
With `CCCCCCC[S+]([O-])c1cc(-c2ccccc2)c(-c2ccccc2)nn1` (stereo unspecified) the IC50 was 77 µM.
For `CCCCCCCCS(=O)(=O)c1cc(-c2ccccc2)c(-c2ccccc2)nn1`, the IC50 was 36 µM.
Work on `CCCCCC[S+]([O-])c1cc(-c2ccccc2)c(-c2ccccc2)nn1` (stereo unspecified) yielded an IC50 of 75 µM.
In the case of `O=C(O)CCCCCCSc1cc(-c2ccccc2)c(-c2ccccc2)nn1`, the IC50 is reported as > 300 µM.
In the case of `O=C(O)CCCCCSc1cc(-c2ccccc2)c(-c2ccccc2)nn1`, the IC50 is reported as > 300 µM.
In the case of `CCCCCCCSc1cc(-c2ccccc2)c(-c2ccccc2)nn1`, the IC50 is reported as 76 µM.
In the case of `CCCCn1nc(-c2ccccc2)c(-c2ccccc2)cc1=O`, the IC50 is reported as 176 µM.
For `O=C(O)CCCCCCCCSc1cc(-c2ccccc2)c(-c2ccccc2)nn1`, the IC50 was > 300 µM.
For `CCCCCCCOc1cc(-c2ccccc2)c(-c2ccccc2)nn1`, the IC50 was 58 µM.
With `O=C(O)CCCCCCn1nc(-c2ccccc2)c(-c2ccccc2)cc1=O` the IC50 was > 300 µM.
`CCCCCCCCCn1nc(-c2ccccc2)c(-c2ccccc2)cc1=O` gave an IC50 of 85 µM.
With `CCCCCCCCC[S+]([O-])c1cc(-c2ccccc2)c(-c2ccccc2)nn1` (stereo unspecified) the IC50 was 87 µM.
For `CCCCCCCCCS(=O)(=O)c1cc(-c2ccccc2)c(-c2ccccc2)nn1`, the IC50 was 76 µM.
`CCCCCCSc1cc(-c2ccccc2)c(-c2ccccc2)nn1` gave an IC50 of 62 µM.
Compound `O=c1cc(-c2ccccc2)c(-c2ccccc2)nn1C1CCCC1` has an IC50 of 119 µM.
Compound `CCCCCCCC[S+]([O-])c1cc(-c2ccccc2)c(-c2ccccc2)nn1` (stereo unspecified) has an IC50 of 92 µM.
In the case of `CCCCCCCCSc1cc(-c2ccccc2)c(-c2ccccc2)nn1`, the IC50 is reported as 130 µM.

Target: Sterol O-acyltransferase 1 (Mus musculus) (UniProt Q61263)
Sequence (Q61263 whole entry, looked up): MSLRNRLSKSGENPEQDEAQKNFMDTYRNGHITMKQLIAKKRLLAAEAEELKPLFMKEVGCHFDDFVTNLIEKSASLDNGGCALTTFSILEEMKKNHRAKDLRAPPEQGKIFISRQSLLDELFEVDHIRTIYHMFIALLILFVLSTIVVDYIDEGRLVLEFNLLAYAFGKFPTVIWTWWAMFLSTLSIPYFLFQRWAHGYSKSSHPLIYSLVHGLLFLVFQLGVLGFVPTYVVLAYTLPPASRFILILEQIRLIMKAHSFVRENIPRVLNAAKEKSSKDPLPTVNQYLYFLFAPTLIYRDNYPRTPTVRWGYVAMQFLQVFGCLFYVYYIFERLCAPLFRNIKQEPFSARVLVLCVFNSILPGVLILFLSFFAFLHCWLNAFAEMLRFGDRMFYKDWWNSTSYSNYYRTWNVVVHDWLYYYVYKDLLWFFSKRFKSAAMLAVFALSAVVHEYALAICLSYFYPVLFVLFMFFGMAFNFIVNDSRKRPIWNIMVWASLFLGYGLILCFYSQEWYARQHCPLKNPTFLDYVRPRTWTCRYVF
Assay: Inhibitory activity against Acyl-coenzyme A:cholesterol acyltransferase in macrophages
In the case of `CCCCCCCCNc1cc(-c2ccccc2)c(-c2ccccc2)nn1`, the IC50 is reported as 3.2 µM.
`CCCCCCCOc1cc(-c2ccccc2)c(-c2ccccc2)nn1` gave an IC50 of 5.1 µM.
